Residues, ends and D or L forms follow the SMILES beside them. *: point of attachment. Cbz = O=C(OCc1ccccc1)*; Boc = CC(C)(C)OC(=O)*
Legend:
Nav1.2 channels = target: T1, Nav1.2 channels (Homo sapiens, UniProt Q99250); experiment: Patch clamp of Na+ currents in Nav1.2 channels; type: cell-based
T1 construct: expressed in transfected cells
Procedure: (§1) The role of ZL0181 in regulating Nav1.1 and Nav1.2 channels was also investigated.
(§2) HEK-Nav1.1, […] HEK-Nav1.6 were maintained in medium composed of equal volumes of DMEM and F-12 (Invitrogen) supplemented with 0.05% glucose, 0.5 mm pyruvate, 10% fetal bovine serum, 100 units/ml penicillin, 100 μg/ml streptomycin incubated at 37° C. with 5% CO2. For selection of Nav1.1 and Nav1.2, 500 μg/ml G418 (Invitrogen) was used, and for selection of Nav1.6, 80 μg/ml G418 (Invitrogen) was used. Cells were transfected according to manufacturer's instructions at 90-100% confluency using Lipofectamine 2000 (Invitrogen). See e.g., Shavkunov, A., et al. Assay and drug development technologies 10(2):148-160 (2012).
(§3) Detailed methods for path-clamp experiments is known in the art. See e.g., Ali, S. R., et al., Journal of Biological Chemistry 291:11268 (2016).

FGF14 = target: T2, FGF14 (Homo sapiens, UniProt Q92915); experiment: Surface plasmon resonance spectroscopy, immobilized FGF14; type: binding; details: SPR, 25° C., 10-200 μM
T2 construct: made in house
T2 sequence (Q92915 64-252 isoform Q92915-2 limits assumed): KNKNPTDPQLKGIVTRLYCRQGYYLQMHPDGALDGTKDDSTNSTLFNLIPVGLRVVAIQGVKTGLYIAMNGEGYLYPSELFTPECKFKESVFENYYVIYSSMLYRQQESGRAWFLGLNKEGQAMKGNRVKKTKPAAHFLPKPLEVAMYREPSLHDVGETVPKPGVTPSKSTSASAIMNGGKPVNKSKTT
Procedure: Surface Plasmon Resonance Spectroscopy. SPR experiments were performed on a Biacore T100 instrument (Biacore GE), and the interaction between FGF14 to Nav1.6 channel was studied at 25° C. To analyze the effects of ZL0181 on channel binding, FGF14WT and Nav1.6 C-tail were immobilized using acetate 5.5 with amine coupling kit on CM5 sensor chip, and obtaining RU 3000 and 4500 respectively. No protein was coupled to the control flow channel of the chip. ZL0181 (5-200 μM) in HBS-P+(50 μl/min) buffer ([…], 150 mM NaCl, 0.005% (v/v) P20), pH 7.4 were injected over the chip for 180 s. Next, HB S-P+ buffer without protein were passed over the chip for 180 s to monitor dissociation, and the chip surface was then regenerated with NaCl (200 mM). For each injection of ZL0181 binding to the FGF14WT or the Nav1.6, the nonspecific responses were subtracted from the responses obtained for control prior to data analysis. Maximal equilibrium responses were plotted against the concentrations of ZL0181, and the equilibrium dissociation constant (KD) was calculated from the fitted saturation binding curve. Fitted binding curves were judged to be accurate based on the distribution of the residuals (even and near zero). Graphs were plotted in GraphPad Prism 6 Software (La Jolla, Calif.).
The role of ZL0181 was further determined by surface plasmon resonance spectroscopy. […]

[1] = target: T3, Nav1.6 channel in the presence of FGF14 (Homo sapiens, UniProt Q9UQD0); experiment: Whole-cell patch clamp of Na+ currents in HEK-Nav1.6 cells expressing FGF14-GFP; type: cell-based
T3 construct: expressed in transfected cells; host or cells: HEK-Nav1.6 cells transiently transfected with FGF14-GFP
Procedure: To determine the role of compounds of the invention in Nav1.6 channels alone and Nav1.6 channels in the presence of FGF14, 2×2 experimental groups using compound ZL0181, an exemplary embodiment, were designed. HEK-Nav1.6 cells were transiently transfected with GFP or […] and treated with either DMSO (0.15% final concentration, control group) or ZL0181 (20 μM, final concentration) 20-60 min prior to the experiments. […] Thus, ZL0181 inhibits peak current amplitude of Na1.6 current.
The role of ZOL181 in Nav1.6 channel in the presence of FGF14 was then investigated. […] Furthermore, the role of ZL0181 to modulate the biophysical properties of Nav1.6 channel in the presence of FGF14 was investigated. In consistency with previous studies, voltage dependence of activation and steady-state inactivation kinetics changes in the cells expressing FGF14-GFP compared with control (FIG. 3C). […] Thus, ZL0181 works synergistically with FGF14 to regulate the peak current amplitude as well as the inactivation kinetics.
Furthermore, using a range of doses from 1 μM to 100 μM a dose-response profile for ZL0181 in HEK293-Nav1.6 cells alone and HEK-Nav1.6 cells transfected with FGF14 was developed.
as §2, §3

Nav1.1 channels = target: T4, Nav1.1 channels (Homo sapiens, UniProt P35498); experiment: Patch clamp of Na+ currents in Nav1.1 channels; type: cell-based
T4 construct: expressed in transfected cells
Procedure: as §1, §2, §3

T3 sequence (Q9UQD0 whole entry): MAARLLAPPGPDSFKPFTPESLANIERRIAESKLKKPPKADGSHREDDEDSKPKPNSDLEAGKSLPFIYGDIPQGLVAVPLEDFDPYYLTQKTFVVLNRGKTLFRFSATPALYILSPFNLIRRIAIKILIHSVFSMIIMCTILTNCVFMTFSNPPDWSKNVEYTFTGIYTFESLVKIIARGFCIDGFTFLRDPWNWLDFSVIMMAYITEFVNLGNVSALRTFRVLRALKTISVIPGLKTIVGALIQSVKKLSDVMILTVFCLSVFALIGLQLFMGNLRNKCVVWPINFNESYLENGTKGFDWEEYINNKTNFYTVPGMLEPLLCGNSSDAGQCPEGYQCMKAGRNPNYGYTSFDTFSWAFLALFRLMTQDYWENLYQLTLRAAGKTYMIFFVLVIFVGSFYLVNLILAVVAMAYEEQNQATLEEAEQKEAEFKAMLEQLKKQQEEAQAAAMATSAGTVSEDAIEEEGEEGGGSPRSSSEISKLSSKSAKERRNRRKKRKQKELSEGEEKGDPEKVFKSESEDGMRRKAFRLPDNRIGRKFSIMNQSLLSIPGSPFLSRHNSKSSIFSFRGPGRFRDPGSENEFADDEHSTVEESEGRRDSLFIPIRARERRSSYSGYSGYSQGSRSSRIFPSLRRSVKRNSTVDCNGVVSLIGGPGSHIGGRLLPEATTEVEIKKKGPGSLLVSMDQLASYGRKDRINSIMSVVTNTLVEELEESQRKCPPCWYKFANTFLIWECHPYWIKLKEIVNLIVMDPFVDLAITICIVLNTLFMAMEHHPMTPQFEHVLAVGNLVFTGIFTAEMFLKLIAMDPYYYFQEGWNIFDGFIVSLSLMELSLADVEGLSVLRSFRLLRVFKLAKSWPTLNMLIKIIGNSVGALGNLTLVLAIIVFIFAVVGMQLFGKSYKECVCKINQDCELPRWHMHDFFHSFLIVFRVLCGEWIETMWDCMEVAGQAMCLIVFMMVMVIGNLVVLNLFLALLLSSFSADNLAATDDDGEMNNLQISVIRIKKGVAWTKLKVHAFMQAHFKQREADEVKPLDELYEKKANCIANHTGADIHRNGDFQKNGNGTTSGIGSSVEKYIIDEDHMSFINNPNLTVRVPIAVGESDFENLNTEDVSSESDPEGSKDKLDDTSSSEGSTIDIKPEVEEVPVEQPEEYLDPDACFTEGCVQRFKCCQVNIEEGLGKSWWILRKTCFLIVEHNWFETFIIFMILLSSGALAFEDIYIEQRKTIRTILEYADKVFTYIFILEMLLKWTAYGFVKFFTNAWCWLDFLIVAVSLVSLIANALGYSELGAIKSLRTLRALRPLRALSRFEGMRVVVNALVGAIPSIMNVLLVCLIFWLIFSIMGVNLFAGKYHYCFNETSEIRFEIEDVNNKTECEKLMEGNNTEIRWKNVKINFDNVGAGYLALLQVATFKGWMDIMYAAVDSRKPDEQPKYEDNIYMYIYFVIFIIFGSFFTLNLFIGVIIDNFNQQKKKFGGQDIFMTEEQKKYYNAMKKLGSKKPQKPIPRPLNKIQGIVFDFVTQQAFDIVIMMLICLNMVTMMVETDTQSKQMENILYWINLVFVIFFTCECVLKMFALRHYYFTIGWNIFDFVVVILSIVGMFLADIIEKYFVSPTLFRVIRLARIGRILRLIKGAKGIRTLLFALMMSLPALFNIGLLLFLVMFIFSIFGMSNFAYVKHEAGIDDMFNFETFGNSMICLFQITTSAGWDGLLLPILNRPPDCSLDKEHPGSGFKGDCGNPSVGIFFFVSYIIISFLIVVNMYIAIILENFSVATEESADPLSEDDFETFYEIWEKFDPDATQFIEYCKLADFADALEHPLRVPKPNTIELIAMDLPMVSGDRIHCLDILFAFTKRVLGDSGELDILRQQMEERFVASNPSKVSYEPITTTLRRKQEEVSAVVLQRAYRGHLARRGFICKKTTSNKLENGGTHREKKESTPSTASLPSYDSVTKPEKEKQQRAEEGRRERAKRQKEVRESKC
T1 sequence (Q99250 whole entry): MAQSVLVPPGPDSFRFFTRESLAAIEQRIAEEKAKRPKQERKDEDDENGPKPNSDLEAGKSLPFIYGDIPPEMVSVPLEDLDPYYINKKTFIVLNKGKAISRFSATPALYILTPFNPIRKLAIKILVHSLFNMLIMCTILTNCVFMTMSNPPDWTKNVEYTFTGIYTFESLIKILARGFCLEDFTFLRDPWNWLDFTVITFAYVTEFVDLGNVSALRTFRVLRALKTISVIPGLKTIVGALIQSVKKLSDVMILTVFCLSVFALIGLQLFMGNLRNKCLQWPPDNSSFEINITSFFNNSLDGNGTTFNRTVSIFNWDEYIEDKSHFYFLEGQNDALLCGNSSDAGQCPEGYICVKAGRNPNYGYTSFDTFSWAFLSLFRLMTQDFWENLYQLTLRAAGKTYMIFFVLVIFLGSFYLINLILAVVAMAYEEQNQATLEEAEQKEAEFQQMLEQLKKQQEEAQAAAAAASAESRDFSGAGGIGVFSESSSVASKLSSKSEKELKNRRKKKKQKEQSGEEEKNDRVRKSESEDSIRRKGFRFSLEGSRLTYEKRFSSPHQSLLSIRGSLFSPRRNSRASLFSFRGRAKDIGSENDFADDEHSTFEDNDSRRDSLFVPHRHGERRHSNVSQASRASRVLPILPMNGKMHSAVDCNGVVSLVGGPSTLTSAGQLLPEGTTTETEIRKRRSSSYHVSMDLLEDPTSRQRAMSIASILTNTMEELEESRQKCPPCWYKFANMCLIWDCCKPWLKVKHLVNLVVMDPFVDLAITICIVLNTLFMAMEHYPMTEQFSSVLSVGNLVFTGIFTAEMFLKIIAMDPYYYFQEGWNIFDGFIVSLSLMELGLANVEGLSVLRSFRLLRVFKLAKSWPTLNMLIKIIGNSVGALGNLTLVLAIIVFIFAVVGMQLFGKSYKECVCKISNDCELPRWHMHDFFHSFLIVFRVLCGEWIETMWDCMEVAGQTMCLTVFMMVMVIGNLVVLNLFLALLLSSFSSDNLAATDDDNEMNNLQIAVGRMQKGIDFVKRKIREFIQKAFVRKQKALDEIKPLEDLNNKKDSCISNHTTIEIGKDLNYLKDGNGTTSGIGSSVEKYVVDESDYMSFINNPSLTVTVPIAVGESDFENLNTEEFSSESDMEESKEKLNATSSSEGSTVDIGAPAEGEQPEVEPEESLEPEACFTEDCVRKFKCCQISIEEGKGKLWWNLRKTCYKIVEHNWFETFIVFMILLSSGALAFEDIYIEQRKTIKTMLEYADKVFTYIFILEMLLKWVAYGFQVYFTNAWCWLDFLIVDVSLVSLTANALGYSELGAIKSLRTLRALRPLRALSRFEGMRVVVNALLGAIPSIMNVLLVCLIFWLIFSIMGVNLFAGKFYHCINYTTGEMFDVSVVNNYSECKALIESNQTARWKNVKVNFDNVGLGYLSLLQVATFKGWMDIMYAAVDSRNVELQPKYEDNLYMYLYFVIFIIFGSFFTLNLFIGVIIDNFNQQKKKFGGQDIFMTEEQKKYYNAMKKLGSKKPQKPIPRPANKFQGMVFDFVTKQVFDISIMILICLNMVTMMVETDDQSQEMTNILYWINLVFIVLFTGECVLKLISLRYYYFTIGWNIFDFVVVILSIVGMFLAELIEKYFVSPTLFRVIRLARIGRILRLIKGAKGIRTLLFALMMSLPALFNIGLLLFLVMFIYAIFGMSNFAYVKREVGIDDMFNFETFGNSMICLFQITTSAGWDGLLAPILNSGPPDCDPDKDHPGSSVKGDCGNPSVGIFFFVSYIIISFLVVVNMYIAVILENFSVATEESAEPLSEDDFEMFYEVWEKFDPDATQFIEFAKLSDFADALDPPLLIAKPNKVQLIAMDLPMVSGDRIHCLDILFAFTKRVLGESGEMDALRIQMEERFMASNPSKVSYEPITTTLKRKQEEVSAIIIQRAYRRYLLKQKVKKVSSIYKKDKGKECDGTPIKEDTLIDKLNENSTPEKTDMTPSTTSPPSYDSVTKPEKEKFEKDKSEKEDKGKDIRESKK

CC(C)C[C@H](NC(=O)[C@H](Cc1ccccc1)NC(=O)OCc1ccccc1)C(=O)N1CCC[C@H]1C(=O)N[C@@H](CCCCNC(=O)OC(C)(C)C)C(N)=O [ZL0181, Z-Phe-Leu-Pro-Lys(Boc)-NH2] (Cbz-FLPK(Boc)-NH2)
peak current amplitude in Nav1.2 channels (Nav1.2 channels): suppresses peak current amplitude
synergy with FGF14 on Na+ current and rescue of V1/2 of inactivation, Nav1.2 (Nav1.2 channels; in presence of FGF14): does neither act synergistically to further suppress Na+ current in presence of FGF14 or rescue the voltage-dependence inactivation property
Kd (FGF14): 13 µM
steady-state inactivation (depolarizing shift induced by FGF14-GFP) ([1]; FGF14-GFP-expressing HEK-Nav1.6 cells, 20 μM): rescued the depolarizing shift of the steady-state inactivation induced by FGF14-GFP expression back to control levels
Na+ current peak amplitude (peak current density) ([1]; FGF14-GFP-expressing HEK-Nav1.6 cells, 20 μM, n=19, DMSO control −18.1±3.8): −7.4±4.4 pA/pF
IC50 ([1]; HEK-Nav1.6 cells transfected with FGF14, doses 1 μM to 100 μM, read-out: IC50, inhibition of Nav1.6 encoded currents in presence of FGF14): 11.5 ± 1.3 µM
peak current amplitude in Nav1.1 channels (Nav1.1 channels): suppresses peak current amplitude
synergy with FGF14 on Na+ current and rescue of V1/2 of inactivation, Nav1.1 (Nav1.1 channels; in presence of FGF14): does neither act synergistically to further suppress Na+ current in presence of FGF14 or rescue the voltage-dependence inactivation property

From US10889543B2, “Fine-tune modulators of neuronal excitability for neuropsychiatric disorders” (THE BOARD OF REGENTS OF THE UNIVERSITY OF TEXAS SYSTEM, priority 2016, dated 2021)
